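Where inhibition never reached the appropriate level, the endpoint shown equals the highest concentration tested. Otherwise, values were interpolated linearly from a five-concentration, 48-hour dose response in 96-well plates. The concentration for 50% growth inhibition is given as GI50. The concentration for full growth arrest is given as TGI.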
What was measured:
Assay in all cases: NCI anticancer screen, dose series, 48 h
786-0 renal = test system: 786-0 renal
A498 renal = test system: A498 renal
A549 NSCLC = test system: A549 NSCLC
ACHN renal = test system: ACHN renal
BT-549 breast = test system: BT-549 breast
CAKI-1 renal = test system: CAKI-1 renal
CCRF-CEM leukemia = test system: CCRF-CEM leukemia
COLO 205 colon = test system: COLO 205 colon
DU-145 prostate = test system: DU-145 prostate
EKVX NSCLC = test system: EKVX NSCLC
HCC-2998 colon = test system: HCC-2998 colon
HCT-116 colon = test system: HCT-116 colon
HCT-15 colon = test system: HCT-15 colon
HL-60(TB) leukemia = test system: HL-60(TB) leukemia
HOP-62 NSCLC = test system: HOP-62 NSCLC
HOP-92 NSCLC = test system: HOP-92 NSCLC
HS 578T breast = test system: HS 578T breast
HT29 colon = test system: HT29 colon
IGROV1 ovarian = test system: IGROV1 ovarian
K-562 leukemia = test system: K-562 leukemia
KM12 colon = test system: KM12 colon
LOX IMVI melanoma = test system: LOX IMVI melanoma
M14 melanoma = test system: M14 melanoma
MALME-3M melanoma = test system: MALME-3M melanoma
MCF7 breast = test system: MCF7 breast
MDA-MB-231 breast = test system: MDA-MB-231 breast
MDA-MB-435 = test system: MDA-MB-435
MOLT-4 leukemia = test system: MOLT-4 leukemia
NCI-H226 lung = test system: NCI-H226 lung
NCI-H23 lung = test system: NCI-H23 lung
NCI-H460 lung = test system: NCI-H460 lung
NCI-H522 lung = test system: NCI-H522 lung
NCI/ADR-RES ovarian = test system: NCI/ADR-RES ovarian
OVCAR-3 ovarian = test system: OVCAR-3 ovarian
OVCAR-4 ovarian = test system: OVCAR-4 ovarian
OVCAR-5 ovarian = test system: OVCAR-5 ovarian
OVCAR-8 ovarian = test system: OVCAR-8 ovarian
PC-3 prostate = test system: PC-3 prostate
RPMI-8226 leukemia = test system: RPMI-8226 leukemia
RXF 393 renal = test system: RXF 393 renal
SF-268 CNS = test system: SF-268 CNS
SF-295 CNS = test system: SF-295 CNS
SF-539 CNS = test system: SF-539 CNS
SK-MEL-2 melanoma = test system: SK-MEL-2 melanoma
SK-MEL-28 melanoma = test system: SK-MEL-28 melanoma
SK-MEL-5 melanoma = test system: SK-MEL-5 melanoma
SK-OV-3 ovarian = test system: SK-OV-3 ovarian
SN12C renal = test system: SN12C renal
SNB-19 CNS = test system: SNB-19 CNS
SNB-75 CNS = test system: SNB-75 CNS
SR leukemia = test system: SR leukemia
SW-620 colon = test system: SW-620 colon
T-47D breast = test system: T-47D breast
TK-10 renal = test system: TK-10 renal
U251 CNS = test system: U251 CNS
UACC-257 melanoma = test system: UACC-257 melanoma
UACC-62 melanoma = test system: UACC-62 melanoma
UO-31 renal = test system: UO-31 renal

CC(=O)c1c(Nc2cccc(F)c2)[nH]c2c(Cl)cc(Cl)c(Cl)c2c1=O
GI50 (786-0 renal): 0.471 µM | TGI (786-0 renal): > 100 µM | GI50 (A498 renal): 0.137 µM | TGI (A498 renal): 0.611 µM | GI50 (A549 NSCLC): 0.479 µM | TGI (A549 NSCLC): > 100 µM | GI50 (ACHN renal): 0.411 µM | TGI (ACHN renal): > 28.6 µM | GI50 (BT-549 breast): 0.457 µM | TGI (BT-549 breast): 8.31 µM | GI50 (CAKI-1 renal): 0.259 µM | TGI (CAKI-1 renal): 1.83 µM | GI50 (CCRF-CEM leukemia): 0.346 µM | TGI (CCRF-CEM leukemia): > 100 µM | GI50 (COLO 205 colon): 0.44 µM | TGI (COLO 205 colon): 2.48 µM | GI50 (DU-145 prostate): 0.447 µM | TGI (DU-145 prostate): > 100 µM | GI50 (EKVX NSCLC): 0.333 µM | TGI (EKVX NSCLC): > 100 µM | GI50 (HCC-2998 colon): 0.333 µM | TGI (HCC-2998 colon): > 100 µM | GI50 (HCT-116 colon): 0.302 µM | TGI (HCT-116 colon): > 44.1 µM | GI50 (HCT-15 colon): 0.296 µM | TGI (HCT-15 colon): 2.23 µM | GI50 (HL-60(TB) leukemia): 0.337 µM | TGI (HL-60(TB) leukemia): 1.54 µM | GI50 (HOP-62 NSCLC): 0.418 µM | TGI (HOP-62 NSCLC): 11 µM | GI50 (HOP-92 NSCLC): 0.0884 µM | TGI (HOP-92 NSCLC): 0.477 µM | GI50 (HS 578T breast): 0.278 µM | TGI (HS 578T breast): > 100 µM | GI50 (HT29 colon): 0.387 µM | TGI (HT29 colon): > 100 µM | GI50 (IGROV1 ovarian): 0.44 µM | TGI (IGROV1 ovarian): > 100 µM | GI50 (K-562 leukemia): 0.307 µM | TGI (K-562 leukemia): > 100 µM | GI50 (KM12 colon): 0.346 µM | GI50 (LOX IMVI melanoma): 0.487 µM | TGI (LOX IMVI melanoma): 12.8 µM | GI50 (M14 melanoma): 0.366 µM | TGI (M14 melanoma): 7.13 µM | GI50 (MALME-3M melanoma): 0.264 µM | TGI (MALME-3M melanoma): 1.02 µM | GI50 (MCF7 breast): 0.309 µM | TGI (MCF7 breast): > 100 µM | GI50 (MDA-MB-231 breast): 0.259 µM | TGI (MDA-MB-231 breast): 1.94 µM | GI50 (MDA-MB-435): 0.425 µM | TGI (MDA-MB-435): 8.55 µM | GI50 (MOLT-4 leukemia): 0.356 µM | GI50 (NCI-H226 lung): 0.343 µM | TGI (NCI-H226 lung): 2.93 µM | GI50 (NCI-H23 lung): 0.262 µM | TGI (NCI-H23 lung): 1.94 µM | GI50 (NCI-H460 lung): 0.36 µM | TGI (NCI-H460 lung): > 100 µM | GI50 (NCI-H522 lung): 0.289 µM | TGI (NCI-H522 lung): > 100 µM | GI50 (NCI/ADR-RES ovarian): 0.297 µM | TGI (NCI/ADR-RES ovarian): 9.89 µM | GI50 (OVCAR-3 ovarian): 0.299 µM | TGI (OVCAR-3 ovarian): > 100 µM | GI50 (OVCAR-4 ovarian): 0.361 µM | TGI (OVCAR-4 ovarian): > 100 µM | GI50 (OVCAR-5 ovarian): 1.22 µM | TGI (OVCAR-5 ovarian): > 100 µM | GI50 (OVCAR-8 ovarian): 0.363 µM | TGI (OVCAR-8 ovarian): > 100 µM | GI50 (PC-3 prostate): 0.257 µM | TGI (PC-3 prostate): 17.6 µM | GI50 (RPMI-8226 leukemia): 0.232 µM | TGI (RPMI-8226 leukemia): 2.18 µM | GI50 (RXF 393 renal): 0.326 µM | TGI (RXF 393 renal): 1.95 µM | GI50 (SF-268 CNS): 0.333 µM | TGI (SF-268 CNS): > 100 µM | GI50 (SF-295 CNS): 0.336 µM | TGI (SF-295 CNS): 1.81 µM | GI50 (SF-539 CNS): 0.369 µM | GI50 (SK-MEL-2 melanoma): 0.292 µM | TGI (SK-MEL-2 melanoma): 1.29 µM | GI50 (SK-MEL-28 melanoma): 0.377 µM | TGI (SK-MEL-28 melanoma): 4.83 µM | GI50 (SK-MEL-5 melanoma): 0.184 µM | TGI (SK-MEL-5 melanoma): 0.433 µM | GI50 (SK-OV-3 ovarian): 0.263 µM | TGI (SK-OV-3 ovarian): 4.86 µM | GI50 (SN12C renal): 0.289 µM | GI50 (SNB-19 CNS): 0.384 µM | TGI (SNB-19 CNS): > 100 µM | GI50 (SNB-75 CNS): 0.508 µM | TGI (SNB-75 CNS): > 22 µM | GI50 (SR leukemia): 0.697 µM | TGI (SR leukemia): > 100 µM | GI50 (SW-620 colon): 0.366 µM | TGI (SW-620 colon): > 100 µM | GI50 (T-47D breast): 0.288 µM | GI50 (TK-10 renal): 0.554 µM | TGI (TK-10 renal): > 100 µM | GI50 (U251 CNS): 0.27 µM | TGI (U251 CNS): > 100 µM | GI50 (UACC-257 melanoma): 0.363 µM | TGI (UACC-257 melanoma): 3.15 µM | GI50 (UACC-62 melanoma): 0.253 µM | TGI (UACC-62 melanoma): 0.793 µM | GI50 (UO-31 renal): 0.216 µM | TGI (UO-31 renal): 5.94 µM
